By IC50 is commonly meant the midpoint of a concentration-inhibition curve. One may read the Cmax as the maximum level reached in the sampled fluid or tissue. In general, bioavailability refers to dose-corrected exposure relative to a reference, in per cent. A word on the half-life: it is how long it takes for the measured level to halve. Broadly, the Vd is the apparent volume that relates the amount in the body to the concentration in plasma or blood. For orientation: clearance means the rate of elimination divided by the concentration.

One data set has as its target Dipeptidyl peptidase 4 (Rattus norvegicus, UniProt P14740). The data set is described as follows: In vitro inhibitory activity against Dipeptidyl peptidase IV (DPP-IV) extracted from rat plasma. The data set is classed as cell-free.
Data set [1] is described as follows: Cmax after an oral dose of 10 umol/Kg in male Sprague-Dawley rats. It is filed as ADME, organism-based. Also on record: dose 10 umol/Kg, route oral. Particulars: rat, in vivo.
A short description of data set [2]: Absolute bioavailability in male cynomolgus monkeys. The data set is classed as ADME, organism-based, Macaca fascicularis. To be noted: cynomolgus monkey, in vivo.
Data set [3] is described as follows: Half-life (t1/2) after an oral dose of 1 uM/Kg in monkey. The data set is classed as ADME, organism-based. To be noted: simiiformes, in vivo.
A short description of data set [4]: Steady state volume of distribution male cynomolgus monkeys. It is filed as ADME, organism-based, Macaca fascicularis. Particulars: cynomolgus monkey, in vivo.
Data set [5] is described as follows: Clearance from plasma in male cynomolgus monkeys. The data set is classed as ADME, organism-based, Macaca fascicularis. To be noted: cynomolgus monkey.
A short description of data set [6]: Steady state volume of distribution in male Sprague-Dawley rats. It is filed as ADME, organism-based. To be noted: rat, in vivo.
Data set [7] is described as follows: Absolute bioavailability in maleSprague-Dawley rats. The data set is classed as ADME, organism-based. To be noted: male, Sprague-Dawley, rat, in vivo.
Data set [8] relates to Monkey. The data set is described as follows: In vivo ability to reduce the peak plasma glucose levels in monkey compared to control ( 88 +/- 3 mg/dL) during an oral glucose tolerance test (OGTT). The data set is classed as functional, Cercopithecidae.
Data set [9] can be described thus: Clearance from plasma in male Sprague-Dawley rats. It is filed as ADME, organism-based. Particulars: rat.
Data set [10] can be described thus: Half-life (t1/2) after an oral dose of 100 mg in human. The data set is classed as ADME, organism-based. To be noted: in vivo.
Data set [11] concerns Monkey. The data set is described as follows: In vivo ability to reduce the plasma glucose levels ( in 0-90 minutes glucose AUC) in monkey compared to control during an oral glucose tolerance test (PGTT). The data set is classed as functional, Cercopithecidae.
Data set [12] can be described thus: Cmax after an oral dose of 10 umol/Kg in male cynomolgus monkeys. It is filed as ADME, organism-based, Macaca fascicularis. Also on record: dose 10 umol/Kg, route oral. To be noted: cynomolgus monkey, in vivo.

Dipeptidyl peptidase 4, sequence (P14740 whole entry): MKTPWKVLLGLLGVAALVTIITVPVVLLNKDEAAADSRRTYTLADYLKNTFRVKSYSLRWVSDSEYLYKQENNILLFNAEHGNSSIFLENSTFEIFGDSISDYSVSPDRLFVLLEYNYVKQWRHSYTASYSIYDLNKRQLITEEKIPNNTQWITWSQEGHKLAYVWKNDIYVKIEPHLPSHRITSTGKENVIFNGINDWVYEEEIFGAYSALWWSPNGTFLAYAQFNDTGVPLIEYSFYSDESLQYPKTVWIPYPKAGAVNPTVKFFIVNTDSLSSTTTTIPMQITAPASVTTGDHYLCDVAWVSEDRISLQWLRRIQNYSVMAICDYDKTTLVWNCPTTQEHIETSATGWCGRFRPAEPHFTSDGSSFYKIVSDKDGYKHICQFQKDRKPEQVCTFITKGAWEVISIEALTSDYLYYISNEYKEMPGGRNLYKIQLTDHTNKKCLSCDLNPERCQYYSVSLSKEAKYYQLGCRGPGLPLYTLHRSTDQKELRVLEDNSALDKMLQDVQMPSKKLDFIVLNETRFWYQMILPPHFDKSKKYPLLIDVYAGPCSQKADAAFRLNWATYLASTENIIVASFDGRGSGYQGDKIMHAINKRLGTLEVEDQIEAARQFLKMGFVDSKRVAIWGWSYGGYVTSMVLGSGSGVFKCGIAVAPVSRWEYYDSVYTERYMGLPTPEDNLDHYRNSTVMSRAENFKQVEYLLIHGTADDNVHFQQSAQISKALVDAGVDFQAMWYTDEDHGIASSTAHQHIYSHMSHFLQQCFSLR

Consider `N#C[C@@H]1CCCN1C(=O)[C@@H](N)C1CCCCC1`, for which the IC50 against Dipeptidyl peptidase 4 amounted to 2.8 nM.

As to `N#Cc1ccc(NCCNCC(=O)N2CCC[C@H]2C#N)nc1`, the figures for the Cmax in data set [1] and in [12] were 3.65 µM and 7.56 µM, respectively. The bioavailability in data set [2] and in data set [7] was ≥ 74% throughout. In addition, the half-life in data set [3] and in data set [10] was 51 min throughout. The Vd in data set [4] turned out to be 0.841 L/kg; in [6] it was 0.67 L/kg. Moreover, the clearance in data set [5] came to 21.9 mL/min/kg; in data set [9] it was 28 mL/min/kg. The Reduction worked out at 98 in the data set on Monkey [8] and 38% in the data set on Monkey [11].

The values are drawn from ChEMBL document CHEMBL1135431, “1-[2-[(5-Cyanopyridin-2-yl)amino]ethylamino]acetyl-2-(S)-pyrrolidinecarbonitrile: a potent, selective, and orally bioavailable dipeptidyl peptidase IV inhibitor with antihyperglycemic properties” (J Med Chem, 2002).
